Converted amounts (≈) assume the structure as drawn. Where two headings read alike, the source gives them in different places.
Assays:
[1] = test system: DSY-294 C. albican CI; assay: MIC determination in Candida strain DSY-294; format: cell-based, Candida albicans; conditions: Candida albicans
Protocol: (§1) In Vitro Antifungal Activity. MIC values for various strains were determined in accordance with the standard protocol from the National Committee of Clinical Laboratory Standards but using YEPD liquid medium instead of RPMI-1640 medium (National Committee of Clinical Laboratory Standards (Reference Method for Broth Dilution Antifungal Susceptibility Testing of Yeast, M27-A2, Approved Standard-Second Edition, Volume 22, Number 15, 1995). AmB was used as a reference. The strains were cultivated overnight in 5 mL YEPD liquid medium at 30 to 37° C. (30° C. for the strain BY4741; 37° C. for the strain DSY1764) with constant shaking. The saturated cultures were diluted to an ODB600 of 0.1 (3×10P^7 cells/mL). Using 24 wells plate, each well was prepared by adding 1% (12 μL) of DMSO solution of the tested polyene macrolide with 1% (12 μL) yeast cells solution and completed with YEPD (1.176 mL). The plates were sealed with Parafilm and then incubated for 18 to 36 hours at 30 to 37° C. (18 hours at 30° C. for the strain BY4741; 36 hours at 37° C. for the strain DSY1764). The optical density was read at 600 nm using 1.5 mL cuvettes. The MIC value was defined as the drug concentration needed to inhibit growth, less than 5% compared to a drug-free culture.
(§2) MIC values of the polyene macrolides 3, 9 and 10 (Diamine-AmB and its ester and diamide derivative, respectively) in various Candida strains including an AmB-resistant strain C. albicans (DSY1764, with the genotype erg3AΔ::hisG/erg3BΔ::hisG erg11Δ::hisG/erg11Δ::hisG-URA3-hisG) were determined.

[2] = test system: DSY-562 C. glabrata CI; assay: MIC determination in Candida strain DSY-562; format: cell-based; conditions: Nakaseomyces glabratus
Protocol: as §1, §2

[3] = test system: Saccharomyces cerevisiae wild type BY4741; assay: MIC determination in Saccharomyces cerevisiae wild type BY4741; format: cell-based; conditions: for MIC: read-out: MIC; for times more active than AmB (MIC): relative to AmB
Protocol: as §1
MIC values of various polyene macrolides of the invention in Saccharomyces cerevisiae wild type BY4741, a derivative of S288C, (with AmB as a reference) were determined as described hereinabove.
Based on the remarkable performance observed with the Diamine-AmB conjugate similar modifications of the aminosugar moiety were made on other polyene macrolides, such as for example Nystatin (1b) and Pimaricin (1c). The antifungal activity of these nystatin and pimaricin conjugates bearing two aminopropyl side chains was measured using Saccharomyces cerevisiae wild type BY4741.

[4] = test system: DSY-296 C. albican CI; assay: MIC determination in Candida strain DSY-296; format: cell-based, Candida albicans; conditions: Candida albicans
Protocol: as §1, §2

[5] = K+ efflux assay, cholesterol containing vesicles; conditions: for K+ efflux with cholesterol-containing vesicles: high concentration, 1.0 μM (FIG. 3b,d,f,h), compared with AmB (1a); for K+ efflux with cholesterol containing vesicles: lower concentration, 0.1 μM (FIG. 3a,c,e,g)
Protocol: FIG. 3. K^+ efflux from vesicles (LUVET100) prepared from […] (POPC) (solid line) or POPC with sterols (dotted line) for ergosterol and (broken line) for cholesterol caused by AmB (1a) (FIGS. 3a,b) and AmB diamine 3 (FIG. 3c,d), AmB diamine ester 9 (FIG. 3e,f) and AmB diamine amide 10 (FIG. 3g,h), added in DMSO to a suspension of vesicles to give final concentrations of 0.1 μM (FIG. 3a,c,e,g) and 1.0 μM (FIG. 3b,d,f,h).
K+ efflux assay. The K^+ efflux measurements were made following a previously described procedure (Zumbuehl, A. et al., Angew. Chem. Int. Ed. 2004, 43, 5181-5185; Zumbuehl, A. et al., Org. Lett. 2004, 6, 3683-3686). The appropriate liposome suspensions were prepared using POPC, cholesterol and ergosterol. Then the liposomes were sized by extrusion through two 400 nm, 200 nm, and finally 100 nm pore size membrane. The resultant “100 nm” unilamellar liposomes were dialyzed against 600 mL of 150 mM NaCl, 5 mM HEPES (pH 7.4) buffer. After, the suspension was diluted with 150 mM NaCl, 5 mM HEPES (pH 7.4) buffer to 1 mM overall lipid concentration (phospholipids+sterols). For each efflux measurement 10 mL of this liposome suspension was placed in a small beaker. Potentiometric measurements were performed with a 16-channel electrode monitor in magnetically stirred solutions at ambient temperature. The reference electrode was a Metrohm double junction Ag/AgCl reference electrode with 3 M KCl as reference electrolyte and 1 M LiOAc as bridge electrolyte. After recording the amphotericin-induced potassium efflux, liposomes were lysed by adding sodium cholate (172 mg). The resulting reading (taken after 0.5 h) was used to quantify the 100% K+-release.
As described hereinbefore differential interaction between ergosterol found in fungal membranes and cholesterol in mammalian cells is considered the basis for the selectivity of AmB (1a) as an antifungal agent. The preferential stabilization of ion channel formation in the membrane by ergosterol ultimately results in electrolyte leakage which can be conveniently measured by K^+ efflux from sterol containing vesicles. To assess the interaction of the polyene macrolide derivatives of the invention with sterols, derivatives 3, 9 and 10 were examined in their ability to lead to K^+ efflux from large unilamellar vesicles (LUV) prepared from POPC (1-palmitoyl-2-oleoyl-sn-glycero-3-phosphocholine) admixed with sterols, mimicking conditions in natural biomembranes (FIG. 3). At high concentration (FIG. 3b,d,f,h), all compounds rapidly induce complete K^+ efflux from vesicles containing ergosterol (dotted line). […] This differentiation between ergosterol and cholesterol is consistent with the observation of reduced hemotoxicity of 3, 9 and 10.

[6] = Solubility assay; format: physicochemical; conditions: for solubility: PBS buffer, pH 7.2, aqueous buffer, kinetic from dmso stock, read-out: Solubility in water
Protocol: Solubility assay. The solubility assay was performed according to Lipinski, C. A. et al Advances Drug Delivery Reviews 2001, 46, 3-26. Typically, a compound of the invention was dissolved in DMSO at a concentration of 10 μg/μl. The so obtained solution was added in […] at 1 min intervals to 2.5 ml PBS buffer solution pH 7.2. These additions correspond to solubility increments of 5 μg/ml to a top value of 65 μg/ml. A total of 14 additions were made and each time increased UV absorbance from light scattering was measured at 600 nm. The precipitation point was calculated from a bilinear curve fit to the Absorbance (y axis) versus μl of DMSO (x axis) plot.
The solubility of the polyene macrolides of the invention in water was tested following the above described protocol. Clearly, all conjugates were more soluble in water then AmB.

[7] = test system: DSY-1764 C. albican mutant erg3/11 (AmB-resistant strain); assay: MIC determination in AmB-resistant Candida strain DSY-1764; format: cell-based, Candida albicans; conditions: Candida albicans, 36 h
Protocol: as §1, §2

[8] = Saccharomyces cerevisiae wild type BY4741, YEPD liquid medium, 18 hours at 30° C.
[9] = Saccharomyces cerevisiae wild type BY4741
[10] = Saccharomyces cerevisiae, Table 3, strain not given, values as in Table 1 (S. cerevisiae BY4741)
[11] = DMSO stock added to PBS buffer solution pH 7.2, precipitation point by light scattering at 600 nm

| Compound | MIC [1] | MIC [2] | MIC [3, 8] | times more active than AmB (MIC) [3, 9] | MIC [3, 10] | MIC [4] | K+ efflux with cholesterol-containing vesicles [5] | K+ efflux with cholesterol containing vesicles [5] | solubility [6, 11] | MIC [7] | Solubility in water ([6]; DMSO stock added to PBS buffer solution pH 7.2, precipitation point by light scattering at 600 nm, listed as Diamine-Amide 10) | solubility in water compared with AmB ([6]; relative to AmB) |
| --- | --- | --- | --- | --- | --- | --- | --- | --- | --- | --- | --- | --- |
| COC(=O)[C@H]1[C@@H]2C[C@@H](O[C@@H]3O[C@H](C)[C@@H](O)[C@H](N(CCCN)CCCN)[C@@H]3O)/C=C/C=C/C=C/C=C/C=C/C=C/C=C/[C@H](C)[C@@H](O)[C@@H](C)[C@H](C)OC(=O)C[C@H](O)C[C@H](O)CC[C@@H](O)[C@H](O)C[C@H](O)C[C@](O)(C[C@@H]1O)O2 [compound 9, N,N-Di-(3-aminopropyl)-AmB Methyl Ester] | 0.25 µM (≈ 0.263 µg/mL) | 0.25 µM (≈ 0.263 µg/mL) | 0.1 µM (≈ 0.105 µg/mL) | 3 times | 0.1 µM (≈ 0.105 µg/mL) | 0.1 µM (≈ 0.105 µg/mL) | significantly reduced efflux | indistinguishable from background | 22 µg/mL (≈ 20.9 µM) | 4 µM (≈ 4.21 µg/mL) |  |  |
| C[C@@H]1[C@H](O)[C@@H](C)/C=C/C=C/C=C/C=C/C=C/C=C/C=C/[C@H](O[C@@H]2O[C@H](C)[C@@H](O)[C@H](N(CCCN)CCCN)[C@@H]2O)CC2O[C@](O)(C[C@@H](O)C[C@@H](O)[C@H](O)CC[C@@H](O)C[C@@H](O)CC(=O)O[C@H]1C)C[C@H](O)[C@H]2C(=O)NCCN [compound 10, 16-(N′-(2-Aminoethyl)-carboxamide)-N,N-di-(3-aminopropyl)-AmB] | 1 µM (≈ 1.08 µg/mL) | 0.5 µM (≈ 0.54 µg/mL) | 0.04 µM (≈ 0.0432 µg/mL) | 7.5 times | 0.04 µM (≈ 0.0432 µg/mL) | 0.75 µM (≈ 0.81 µg/mL) | significantly reduced efflux | indistinguishable from background | ≤ 40 µg/mL | 4 µM (≈ 4.32 µg/mL) | 40 µg/mL (≈ 37 µM) | four times more soluble |

Source: patent publication US20090186838A1, “Amphotericin Derivatives” (Eidgenössische Technische Hochschule Zürich, priority 2006, published 2009)
